{"source": "patent US12458678B2", "about": "“Composition for preventing or treating prostatic hyperplasia comprising mixed extracts of Curcumae radix and Syzygii flos” (UNIVERSITY-INDUSTRY COOPERATION GROUP OF KYUNG HEE …, priority 2019, dated 2025)", "key": {"[1]": {"test_system": "prostate epithelial cells", "assay": "H&E staining of prostate tissue, prostate epithelial cell thickness", "format": "in vivo, Sprague-Dawley (SD) rats", "conditions": "TP-induced BPH rats, FIG. 3B", "experimental": "To induce benign prostatic hyperplasia, rats were divided into four groups, and six animals were randomly assigned to each group. Three groups among them were injected with TP (5 mg/kg/day) into the groin for 4 weeks, and one group, a normal control group, was injected with the same amount of ethanol. After induction of benign prostatic hyperplasia for 4 weeks, the experiment was performed by various treatment as follows: (i) a normal control group injected with ethanol for an additional four weeks (NC group); (ii) a disease control group injected with TP for an additional four weeks (benign prostatic hyperplasia, BPH group); […] Prostate samples fixed in paraffin were cut to a thickness of 4 μm. […] Tissue sections were treated in 150 μl of 0.1% trypsin working solution (composition: trypsin 0.4 ml, calcium 0.01 g, chloride 0.01 g in D.W. 7 ml) for 15 minutes, and then blocked using fetal bovine serum (FBS). For H&E staining, the cut tissue was immersed in hematoxylin solution for 5 minutes, distilled water for 5 minutes, and eosin solution for 30 seconds, and then dried and fixed. The slides were observed using an Olympus IX71 Research Inverted Phase microscope (Olympus Co., Tokyo, Japan), and the density was measured using ImageJ 1.47v software (National Institute of Health, MD, USA)."}, "cyclin B1": {"test_system": "cyclin B1", "assay": "Cyclin B1 expression in prostate tissue, Western blot", "format": "in vivo, Sprague-Dawley (SD) rats", "conditions": "Example 11.5, FIG. 15; comparison with finasteride"}, "[2]": {"test_system": "dihydrotestosterone (DHT)", "assay": "Dihydrotestosterone (DHT) assay by ELISA in BPH rats", "format": "in vivo, Sprague-Dawley (SD) rats", "conditions": "Example 11.1, FIG. 11; comparison with finasteride"}, "[3]": {"test_system": "proliferating cell nuclear antigen (PCNA)", "assay": "PCNA expression in prostate tissue, Western blot", "format": "in vivo, Sprague-Dawley (SD) rats", "conditions": "Example 11.4, FIG. 14; comparison with finasteride"}, "[4]": {"test_system": "benign prostatic hyperplasia animal model", "assay": "Prostate tissue weight and prostate index in TP-induced benign prostatic hyperplasia rats", "format": "in vivo, Sprague-Dawley (SD) rats", "conditions": "FIG. 2 upper", "experimental": "For the benign prostatic hyperplasia animal model, 12-week-old male Sprague-Dawley (SD) rats (200±20 g) were purchased and tested from Daehan Biolink (Eumseong, Korea). After an acclimatization period for 1 week before the start of the experiment, feed and water were freely ingested for 6 weeks during the experiment. In an environment in which the light was controlled at intervals of 12 hours, the indoor temperature was 23±2° C., and the humidity was maintained at 70%. To induce benign prostatic hyperplasia, rats were divided into four groups, and six animals were randomly assigned to each group. Three groups among them were injected with TP (5 mg/kg/day) into the groin for 4 weeks, and one group, a normal control group, was injected with the same amount of ethanol. After induction of benign prostatic hyperplasia for 4 weeks, the experiment was performed by various treatment as follows: (i) a normal control group injected with ethanol for an additional four weeks (NC group); (ii) a disease control group injected with TP for an additional four weeks (benign prostatic hyperplasia, BPH group); […] In addition, in order to correct the difference in tissue weight according to body weight, the prostate index was calculated by dividing the weight of the prostate in mg with respect to 100 g of body weight."}, "[5]": {"test_system": "sperm count in the epididymis", "assay": "Analysis of sperm count in epididymis", "format": "in vivo, SD rats", "conditions": "cauda epididymis of BPH rats; FIG. 17", "experimental": "After excision of cauda epididymis from […] SD rats, it was cut into small pieces twice. Then, they were immersed in 4 ml of PBS for 1 hour to cause the sperm to spread into the PBS solution. After mixing PBS containing sperm with the same amount of methanol, they were observed using a hematocytometer and an Olympus IX71 Research Inverted Phase microscope (Olympus Co., Tokyo, Japan).\nIn order to check the sperm count, after excision of the cauda epididymis of the SD rat group used in the above-mentioned Examples, it was cut into small pieces twice. Then, they were placed in 4 ml of PBS for 1 hour to allow the sperm to spread into the PBS solution. After mixing PBS containing sperm with the same amount of methanol, they were observed using a hematocytometer and an Olympus IX71 Research Inverted Phase microscope."}, "[6]": {"test_system": "prostate specific antigen (PSA)", "assay": "Prostate specific antigen expression in prostate tissue, Western blot", "format": "in vivo, Sprague-Dawley (SD) rats", "conditions": "Example 11.2, FIG. 12; comparison with finasteride"}}}
{"smiles": "CC(C)(C)NC(=O)[C@H]1CC[C@H]2[C@@H]3CC[C@H]4NC(=O)C=C[C@]4(C)[C@H]3CC[C@]12C", "note": "[finasteride]", "values": [{"measurement": "thickness of prostate epithelial cells", "setting": "[1]; BPH group 12.06 μm, NC group 9.68 μm", "value": 9.38, "unit": "μm"}, {"measurement": "prostate epithelial cell thickness reduced compared to the BPH group", "setting": "[1]", "value": 22, "unit": "%"}, {"measurement": "cyclin B1 expression inhibited based on the BPH group", "setting": "cyclin B1", "value": 41, "unit": "%"}, {"measurement": "DHT expression inhibited based on the BPH group", "setting": "[2]", "value": 77, "unit": "%"}, {"measurement": "PCNA expression inhibited based on the BPH group", "setting": "[3]", "value": 45, "unit": "%"}, {"measurement": "average prostate weight", "setting": "[4]; TP-induced BPH rats, UM-002 50 mg/kg/day or finasteride 1 mg/kg/day for 4 weeks, BPH group 1.73 g, NC group 0.73 g", "value": 0.93, "unit": "g"}, {"measurement": "prostate weight lower than that of the BPH group", "setting": "[4]; vs BPH group 1.73 g", "value": 54, "unit": "%"}, {"measurement": "sperm count compared to the NC group", "setting": "[5]", "value": 56, "unit": "%"}, {"measurement": "PSA expression inhibited based on the BPH group", "setting": "[6]", "value": 55, "unit": "%"}]}
